Measurements as given in patent US4343949A, “Novel 2-substituted-3,4-epoxycyclopentan-1-ones, 2-substituted-3,4-epoxycyclopentan-1-ols, and various 2-substituted-cyclopentenones” (American Cyanamid Company, priority 1979, dated 1982).

Assays:
[1] = tested on: ulcerogenic properties of indomethacin; assay: protection against the ulcerogenic properties of indomethacin (stomach ulcer score); format: in vivo, Rats; conditions: indomethacin 20 mg./kg. s.c., 2.5 or lower = active
Method: The compounds of this invention provide protection against the ulcerogenic properties of indomethacin. This assay was carried out in the following manner.
Rats were starved for 48 hours (water was given ad libitum). Indomethacin (20 mg./kg. of body weight) was administered by the subutaneous route and one-half the dose of the test compound was administered by gavage at the same time. After three hours, the second half of the test compound was administered also by Gavage. Five hours after the administration of indomethacin the animals were decapitated and the stomachs removed. The stomachs were washed with distilled water, blotted on gauze, cut along the larger curvature, and the contents rinsed with distilled water. The stomachs were spread out, pinned on a cork and visualized under magnifying glass for ulcers. The criteria for scoring of ulcers was as previously reported. [Abdel-Galil et al. Brit. J. Pharmac. Chemotherapy 33:1-14 (1968)]. […]
______________________________________
Petechial hemorrhage or pin point ulcer
Many ulcers, a few large
Many ulcers, mainly large
Control animals treated with indomethacin but not test compound consistently give scores of about 3.0-3.5. Control animals treated with neither indomethacin nor test compound give scores of about 0.5-0.8. Compounds producing a score of 2.5 or lower are considered to be active.

[2] = tested on: bronchospasms elicited by 5-hydroxytryptamine; assay: bronchodilator activity (Konzett assay) against 5-hydroxytryptamine bronchospasm; format: in vivo, guinea pigs; conditions: Cavia porcellus; spasmogenic agent 5-hydroxytryptamine; three logarithmic cumulative intravenous doses
Method: (§1) Bronchodilator activity was determined in guinea pigs against bronchospasms elicited by intravenous injections of 5-hydroxytryptamine, histamine or acetylcholine by the Konzett procedure. (See J. Lulling, P. Lievens, F. El Sayed and J. Prignot, Arzeimittel-Porschung, 18 995 (1968).]
(§2) In the Table which follows bronchodilator activity for representative compounds of this invention against one or more of the three spasmogenic agents is expressed as an ED50 determined from the results obtained with three logarithemic cumulative intravenous doses.

[3] = tested on: bronchospasms elicited by acetylcholine; assay: bronchodilator activity (Konzett assay) against acetylcholine bronchospasm; format: in vivo, guinea pigs; conditions: Cavia porcellus; spasmogenic agent acetylcholine (head prints choline); three logarithmic cumulative intravenous doses
Method: as §1, §2

[4] = tested on: bronchospasms elicited by histamine; assay: bronchodilator activity (Konzett assay) against histamine bronchospasm; format: in vivo, guinea pigs; conditions: Cavia porcellus; spasmogenic agent histamine; three logarithmic cumulative intravenous doses
Method: as §1, §2

[5] = total oral dose 25 mg./kg. of body weight, control score 3.2

| SMILES | Score, Treated (stomach ulcer score) [1, 5] | ED50 [2] | ED50 [3] | other results |
| --- | --- | --- | --- | --- |
| CCCCCC(O)/C=C/C1CCC(=O)C1CCCCSCC(=O)O (stereo not drawn) [9-oxo-3-thia-15-hydroxy-13-trans-prostenoic acid] | 1.8 | – | – | – |
| CCCCCC(O)/C=C/C1CCC(=O)C1CCCCSCC(=O)O (stereo not drawn) [9-oxo-3-thia-15-epi-hydroxy-13-trans-prostenoic acid] | 2.3 | – | – | – |
| CCCCCC(O)/C=C/C1CCC(=O)C1CCCCCC(CC)C(=O)O (stereo not drawn) [9-oxo-15-hydroxy-2-ethyl-13-trans-prostenoic acid] | – | 0.329 µg/kg | 0.533 µg/kg | ED50 [4]: 0.145 µg/kg |
| CCCCCC(O)/C=C/C1CCC(=O)C1(C)CCCCCCC(=O)O (stereo not drawn) [9-oxo-8β-methyl-15-hydroxy-13-trans-prostenoic acid] | – | – | – | Score, Treated (stomach ulcer score) ([1]; total oral dose 12.5 mg./kg. of body weight, control score 3.0): 2.0 |
| CCCCCC(O)/C=C\C1CCC(=O)C1CCCCCCC(=O)O (stereo not drawn) [9-oxo-15-hydroxy-13-cis-prostenoic acid] | – | 0.106 µg/kg | 0.32 µg/kg | – |
